Several values for one entry are separate records, joined by “and”; a condition that tells them apart may be missing. Identical values can stand only once.
tested on: MDA-MB-231; assay: shRNA barcode abundance ratio t_end/t_zero (depletion over 4 weeks of proliferation) (log2 ratio); higher = less depletion (weaker anti-proliferative effect of the shRNA); conditions: time after t zero 28 days
Description: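 Pooled lentiviral negative-selection screen of 305 pGIPZ shRNAs (Open Biosystems V2LHS clones; the 21-nt half-hairpin sense stem is embedded in a mir-30 scaffold) in MDA-MB-231 breast carcinoma cells, infected at MOI 0.3 with 0.5 ug/ml puromycin selection. Barcode abundance was read on barcode tiling microarrays (six 25-nt probes per 60-nt barcode) at t_zero (5 days post-infection) and t_end (33 days; 28 days of culture after t_zero). Values are median-normalised t_end/t_zero signal ratios, averaged over the tiling probes that passed a 10-fold background filter, from three biological replicates.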

Sequence	shRNA barcode abundance ratio t end/t zero (log2)
CCAACCACTTCATTCTTGAAA (targeted gene: IL10)	0.022 and 0.0479
GGACTCTAGAATGTCCATATT (targeted gene: NUAK2)	0.326
GCAGAAGCTCTCCAAATTGAA (targeted gene: APAF1)	0.521
ACAGTTTGAGTCAACTAGAAT (targeted gene: CD28)	0.508
CGGCTTTATGATGCTTATGAA (targeted gene: ANXA5)	0.161
TACTGTCTTTGAGAACTATAT (targeted gene: RHOC)	0.0813
GGACTTCAGCAGAAATCTTTA (targeted gene: CASP8)	0.126
GCTCACTCTTCAGTCGGAAAT (targeted gene: BCL2L1)	-0.368
CCAACTAATCTTCGAATCGAA (targeted gene: SOCS2)	0.157
CGAGAGAGTTTCCCTACGTAT (targeted gene: CDH1)	0.249
GCTATCTCTCCTGAAGCAATA (targeted gene: BCL2A1)	0.264
GGTATTCTCATCAAGAAACTT (targeted gene: BCL2A1)	0.349
GGAGAGAACTGTCATTTCTAA (targeted gene: IGF1R)	0.393
CACCAGCACTTTATACACTTC (targeted gene: RHOC)	0.652
GGGTAGAAATTGGCTTCATAA (targeted gene: WRN)	-0.246
CCTACTAACAATATCTGTTAA (targeted gene: SOCS2)	0.0566
GGACAGTGCTTGATACAGGAA (targeted gene: PIM1)	0.128
GGTCACTTTGTATATAGAATT (targeted gene: HBXIP)	0.371
CCGCCTCTTTGACCAGTTCTT (targeted gene: CRYAB, Cryab)	0.00542
AAGCGTGCTCTCCGAAGATAA (targeted gene: SORT1)	0.237
GGTAGCAATTGCCTGAATAAT (targeted gene: IL7)	-0.149
CCAAATTATGTGTTTCCGAAA (targeted gene: IGF1R)	0.502

Sequence	shRNA barcode abundance ratio t end/t zero (log2)
CGGTATTAAGTTGTAATTTAA (targeted gene: PROK2)	0.137
CCTGCAAACCTTATCCTCTAT (targeted gene: MAPK8IP2)	0.442
CCTGGCTCCTCTACTGTTTAA (targeted gene: BIRC5)	-0.954
CGAACTCCTCTTCTCAGTTAA (targeted gene: IGF1R)	0.302
CCATATTTGCATTTGAAGGTA (targeted gene: BCL2A1)	0.349
CCATTGCCCATCGAGATTTAA (targeted gene: ACVR1)	0.196
GCAGATTCGTTCAGAGTCTAA (targeted gene: BIRC3)	0.154
CCATTCTGATTCTTCAGTCAT (targeted gene: TOPORS)	0.459
GCAAAGAATCTAGATGCAATA (targeted gene: IL6)	0.508 and 0.569
GCAGGTATTTGACATATTAAA (targeted gene: NFKB1)	0.38
CGTTATTAACTTGTTATTTAG (targeted gene: API5)	0.468
GGACAAAGTTTACCAAATGAA (targeted gene: CASP8)	0.402
CCCAGCAATAATTTAAACTTA (targeted gene: WRN)	0.168
GCACCTAGTGTCCAGATTCAT (targeted gene: HDAC3)	0.129
CCAACATATCTCACTCTAGAA (targeted gene: BARD1)	0.531
CGGGTTTCTCCGGCGTCATTA (targeted gene: PIM1)	0.0461 and 0.0898
GCAAAGATCCTGATATCTTAT (targeted gene: RASA1)	0.278
CGTAAGATGATGGATTTGATT (targeted gene: BIRC5)	0.0401
GGTTTGTGCCTTACATTATTA (targeted gene: PSEN1)	-1.92
GGAGAAATTATTGATCCAAAT (targeted gene: NAIP)	0.608
CCGTTATGAAAGAGAAATGAA (targeted gene: HMGB1)	-0.0571
GCAATTGAGAGCATTCTTAAA (targeted gene: IL3)	-0.0688

Sequence	shRNA barcode abundance ratio t end/t zero (log2)
GCAAATTTCATGACCAGTAAA (targeted gene: TDGF1)	-0.234
GCTTGTTGTTTGAGAAGTTTA (targeted gene: BAG3)	0.38
GGCTTTGTCTTTACAGGTAAA (targeted gene: NAIP)	0.603
GGTCTCCTTAGGGAACATAAA (targeted gene: ATM)	-0.27
CGAGACATTCGCATCAAATAT (targeted gene: NRG2)	0.219
CCAGATAATATTAAGGGAAAT (targeted gene: ABCB1)	0.255
CCAACACGTTTGAACTGAAAT (targeted gene: BIRC3)	0.578
GCCTTGAAACATTGATGGAAT (targeted gene: BCL2)	0.25
CGCCAGCACCGGAGGAAGAAA (targeted gene: CDKN2A)	-0.0357
GCTGCTTCTGTCTGGTTTATT (targeted gene: THY1)	-0.0341
CCACCTGGACTCCTATGAGAA (targeted gene: SOCS3)	0.145
CCATATAGTTCCTTGGGATTA (targeted gene: BCL2L2)	0.203
CCTCAGTGTCTGTTGAAGTAA (targeted gene: BIRC6)	-0.238
GCCTATGACTTTATCATGAAA (targeted gene: ABCB1)	0.0933
CCAAAGCATTTCATTGAGAAT (targeted gene: TOPORS)	-0.193
CATCTCAGTATGCATGGTATA (targeted gene: CFLAR)	-0.976
GGGCATTTGAGAAATGCATAT (targeted gene: IL7)	0.11
CCAGAGAATTTGCTTACCAAA (targeted gene: RALBP1)	0.116
CAACGGAACTTGTTTGCTCTT (targeted gene: SOCS3)	-0.536
CCGCAAAGAATCAAGTTGCAA (targeted gene: HSPA8)	-0.446
GCGAAGAACCTTGTGTGACAA (targeted gene: BCL2)	-0.0784
GGCCTGACAATGGTACCTATT (targeted gene: HDAC3)	-1.93

Sequence	shRNA barcode abundance ratio t end/t zero (log2)
GCCTGTCCATTGGTGATGTTG (targeted gene: HMGB1)	-0.18
GCGCCGAAATTGCAGGTTTAT (targeted gene: BIRC8)	-0.37
TCACAGAGCTTTGTAAGCAAA (targeted gene: NME5)	0.139
GCTGTAACTACTTTATAACTA (targeted gene: RHOA)	-0.0204
CGTGATTCTAAGAATCTCAAA (targeted gene: IL1A)	0.666
GGACATCTAGTCACTTGTAAA (targeted gene: XIAP)	0.00436
GGTGCCTTGAGGAATACAGAA (targeted gene: NT5C3)	0.235
CGCAGATAGGAGTAGTCTTTA (targeted gene: NFIA)	0.432
GGCCATTCATTTAATGTGCAT (targeted gene: HBXIP)	0.497
GGCAAATCCTTGTTTAACAAA (targeted gene: BIRC6)	0.616
CGAGCCCTGGACACCAACTAT (targeted gene: TGFB1)	0.183
CCAGTGACCTTCGCTCCACAT (targeted gene: BAD)	0.391
GGCTAGACTTAGATTCATTAA (targeted gene: VHL)	0.486
CCATTTACAGCCATTTCTAAA (targeted gene: ESR1)	0.128
GGCTTTACTCCGTAACAGATT (targeted gene: RHOA)	-2.14
GCCTGCTGAATTTATGTTGTA (targeted gene: RAB6C)	-1.3
CCGTAGCCTCTGCCCTGTAAA (targeted gene: BAG3)	0.779
TCAGGAAATGTTATCAGCAAA (targeted gene: BNIP2)	0.477
CCAGGAGAACAGTTGTTAAAT (targeted gene: HIPK3)	0.228
CCAGAGGCTTCCACTTAATAT (targeted gene: APAF1)	0.0519
